Data as given in the supplement of paper PMC11208160.

Assay: recombinant UMI read abundance after kanamycin selection (control-corrected) (log10(CPM+1)); higher = more efficient recombination; extreme values may be limits of the assay; sequences stand for … in AGTGCAGAGAAAATCGGCCAGTTTTCTCTGCCTGCAGTCCGCATGCCGTGGGACCCCTTGGGTTCTAACCTGTTGCCTAGATTTATGCAGCGGACTGCCTTTCTCCCAAAGTGATAAACCGG…AGGTTGGTTTCACT; site = the 11-nt donor
Outline: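 For the IS621 bridge recombinase, a pooled Escherichia coli screen tested donor and donor-binding-loop pairs. Cells received the pair library together with a target plasmid encoding a fixed target and T7-inducible recombinase, then went onto IPTG (0.07 mM) plus kanamycin or unselected plates in duplicate. After PCR across the donor–target junction and sequencing, recombinant UMI counts were normalized to CPM, averaged, and scaled by control-derived factors. Each value is given as log10(CPM+1).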
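Note: IS621 bridge recombinase in Escherichia coli cells against a fixed T5 target plasmid.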

Sequence | recombinant UMI read abundance (log10)
CACTGCCCATGGACCGGTTTTCCCGGTAATCCGTATTTGTT (site CACTGCCCTAA) | 0.276
CACTGCTCATGGACCGGTTTTCCCGGTAATCCGTATTTGAA (site CAATGCTCTTT) | 0.0153
CACTGCTCATGGACCGGTTTTCCCGGTAATCCGTATTTGAA (site CACTGCTCTTT) | 2.09
CACTGCTCATGGACCGGTTTTCCCGGTAATCCGTATTTGAA (site CAGTGCTCTTT) | 0.00554
CACTGCTCATGGACCGGTTTTCCCGGTAATCCGTATTTGAA (site CATTGCTCTTT) | 0.0128
CACTGGACATGGACCGGTTTTCCCGGTAATCCGTATTTGGT (site CACTGGACTAC) | 1.24
CAGAAAACATGGACCGGTTTTCCCGGTAATCCGTATTTGGG (site CAGAAAACTCC) | 0.991
CAGACATCATGGACCGGTTTTCCCGGTAATCCGTATTTGCT (site CAGACATCTAG) | 2.46
CAGACATCATGGACCGGTTTTCCCGGTAATCCGTATTTGCT (site CCGACATCTAG) | 1.06
CAGACATCATGGACCGGTTTTCCCGGTAATCCGTATTTGCT (site CGGACATCTAG) | 1.16
CAGACATCATGGACCGGTTTTCCCGGTAATCCGTATTTGCT (site CTGACATCTAG) | 1.42
CAGACCGCATGGACCGGTTTTCCCGGTAATCCGTATTTGAT (site CAGACCGCTAT) | 2.7
CAGACGCCATGGACCGGTTTTCCCGGTAATCCGTATTTGAC (site CAGACGCCTGT) | 1.91
CAGACGGCATGGACCGGTTTTCCCGGTAATCCGTATTTGGG (site CAGACGGCTCC) | 0.191
CAGAGAGCATGGACCGGTTTTCCCGGTAATCCGTATTTGTA (site CAGAGAGCTTA) | 2.94
CAGCACGCATGGACCGGTTTTCCCGGTAATCCGTATTTGGT (site CAGCACGCTAC) | 1.61
CAGCCCACATGGACCGGTTTTCCCGGTAATCCGTATTTGAA (site CAGCCCACTTT) | 1.15
CAGCTATCATGGACCGGTTTTCCCGGTAATCCGTATTTGTC (site CAGCTATCTGA) | 3.3
CAGGAGTCATGGACCGGTTTTCCCGGTAATCCGTATTTGCC (site CAGGAGTCTGG) | 3.4
CAGGAGTCATGGACCGGTTTTCCCGGTAATCCGTATTTGCC (site CCGGAGTCTGG) | 0
CAGGAGTCATGGACCGGTTTTCCCGGTAATCCGTATTTGCC (site CGGGAGTCTGG) | 0
CAGGAGTCATGGACCGGTTTTCCCGGTAATCCGTATTTGCC (site CTGGAGTCTGG) | 1.73
CAGGCAGCATGGACCGGTTTTCCCGGTAATCCGTATTTGCT (site CAAGCAGCTAG) | 1.66
CAGGCAGCATGGACCGGTTTTCCCGGTAATCCGTATTTGCT (site CACGCAGCTAG) | 0
CAGGCAGCATGGACCGGTTTTCCCGGTAATCCGTATTTGCT (site CAGGCAGCTAG) | 1.92

Sequence | recombinant UMI read abundance (log10)
CAGGCAGCATGGACCGGTTTTCCCGGTAATCCGTATTTGCT (site CATGCAGCTAG) | 0
CAGGCGACATGGACCGGTTTTCCCGGTAATCCGTATTTGGG (site CAGACGACTCC) | 0.0355
CAGGCGACATGGACCGGTTTTCCCGGTAATCCGTATTTGGG (site CAGCCGACTCC) | 0.0323
CAGGCGACATGGACCGGTTTTCCCGGTAATCCGTATTTGGG (site CAGGCGACTCC) | 0.209
CAGGCGACATGGACCGGTTTTCCCGGTAATCCGTATTTGGG (site CAGTCGACTCC) | 0.0086
CAGGGCACATGGACCGGTTTTCCCGGTAATCCGTATTTGGA (site CAGGGCACTTC) | 0.471
CAGGTCGCATGGACCGGTTTTCCCGGTAATCCGTATTTGAT (site CAGGTCGCTAT) | 2.33
CAGTCAACATGGACCGGTTTTCCCGGTAATCCGTATTTGGG (site CAGTCAACTCC) | 0.146
CAGTCAACATGGACCGGTTTTCCCGGTAATCCGTATTTGGG (site CAGTCCACTCC) | 0.018
CAGTCAACATGGACCGGTTTTCCCGGTAATCCGTATTTGGG (site CAGTCGACTCC) | 0.0226
CAGTCAACATGGACCGGTTTTCCCGGTAATCCGTATTTGGG (site CAGTCTACTCC) | 0.0255
CAGTCGACATGGACCGGTTTTCCCGGTAATCCGTATTTGGT (site CAGTCGACTAC) | 1.13
CAGTCGACATGGACCGGTTTTCCCGGTAATCCGTATTTGGT (site CAGTCGACTCC) | 0.0077
CAGTCGACATGGACCGGTTTTCCCGGTAATCCGTATTTGGT (site CAGTCGACTGC) | 1.41
CAGTCGACATGGACCGGTTTTCCCGGTAATCCGTATTTGGT (site CAGTCGACTTC) | 0.56
CAGTGCTCATGGACCGGTTTTCCCGGTAATCCGTATTTGGT (site CAGTGCTCTAC) | 2.49
CAGTTGACATGGACCGGTTTTCCCGGTAATCCGTATTTGGG (site CAGTAGACTCC) | 0
CAGTTGACATGGACCGGTTTTCCCGGTAATCCGTATTTGGG (site CAGTCGACTCC) | 0.0208
CAGTTGACATGGACCGGTTTTCCCGGTAATCCGTATTTGGG (site CAGTGGACTCC) | 0.00569
CAGTTGACATGGACCGGTTTTCCCGGTAATCCGTATTTGGG (site CAGTTGACTCC) | 0.53
CATAAAGCATGGACCGGTTTTCCCGGTAATCCGTATTTGAT (site CATAAAGCTAT) | 2.1
CATAAAGCATGGACCGGTTTTCCCGGTAATCCGTATTTGAT (site CCTAAAGCTAT) | 0.00418
CATAAAGCATGGACCGGTTTTCCCGGTAATCCGTATTTGAT (site CGTAAAGCTAT) | 0.166
CATAAAGCATGGACCGGTTTTCCCGGTAATCCGTATTTGAT (site CTTAAAGCTAT) | 0
CATACGCCATGGACCGGTTTTCCCGGTAATCCGTATTTGGG (site CATACGCCTCC) | 0.0136

Sequence | recombinant UMI read abundance (log10)
CATCAGCCATGGACCGGTTTTCCCGGTAATCCGTATTTGAG (site CATCAGCCTCT) | 0.441
CATCAGTCATGGACCGGTTTTCCCGGTAATCCGTATTTGCA (site CATCAGTCTTG) | 3.13
CATCCAACATGGACCGGTTTTCCCGGTAATCCGTATTTGTC (site CATCCAACTGA) | 2.17
CATCGCACATGGACCGGTTTTCCCGGTAATCCGTATTTGGC (site CATCGCACTGC) | 2.26
CATCGCCCATGGACCGGTTTTCCCGGTAATCCGTATTTGAT (site CATCGCCCTAT) | 0.725
CATCTCTCATGGACCGGTTTTCCCGGTAATCCGTATTTGTA (site CATCTCTCTTA) | 2.66
CATCTCTCATGGACCGGTTTTCCCGGTAATCCGTATTTGTA (site CCTCTCTCTTA) | 1.42
CATCTCTCATGGACCGGTTTTCCCGGTAATCCGTATTTGTA (site CGTCTCTCTTA) | 1.23
CATCTCTCATGGACCGGTTTTCCCGGTAATCCGTATTTGTA (site CTTCTCTCTTA) | 1.98
CATGAGGCATGGACCGGTTTTCCCGGTAATCCGTATTTGGT (site CATGAGGCTAC) | 1.12
CATGCCTCATGGACCGGTTTTCCCGGTAATCCGTATTTGCT (site CATGCCTCTAG) | 2.76
CATGGAACATGGACCGGTTTTCCCGGTAATCCGTATTTGGA (site CATGGAACTTC) | 1.99
CATGGCACATGGACCGGTTTTCCCGGTAATCCGTATTTGGA (site CATGGCACTTC) | 0.46
CATGTCACATGGACCGGTTTTCCCGGTAATCCGTATTTGGG (site CAAGTCACTCC) | 0.0107
CATGTCACATGGACCGGTTTTCCCGGTAATCCGTATTTGGG (site CACGTCACTCC) | 0.0251
CATGTCACATGGACCGGTTTTCCCGGTAATCCGTATTTGGG (site CAGGTCACTCC) | 0.0142
CATGTCACATGGACCGGTTTTCCCGGTAATCCGTATTTGGG (site CATGTCACTCC) | 0.00831
CATGTGGCATGGACCGGTTTTCCCGGTAATCCGTATTTGCT (site CATGTGGCTAG) | 1.39
CATGTTCCATGGACCGGTTTTCCCGGTAATCCGTATTTGTT (site CATGTTCCTAA) | 0.678
CATTCAACATGGACCGGTTTTCCCGGTAATCCGTATTTGAC (site CATTCAACTGT) | 0.406
CATTGTACATGGACCGGTTTTCCCGGTAATCCGTATTTGGG (site CATTGTACTCC) | 0.0267
CATTTCTCATGGACCGGTTTTCCCGGTAATCCGTATTTGTT (site CATTTCTCTAA) | 1.52
CATTTGCCATGGACCGGTTTTCCCGGTAATCCGTATTTGTG (site CATTTGCCTCA) | 0.302
CCAAAACCATGGACCGGTTTTCCCGGTAATCCGTATTTGTT (site CCAAAACCTAA) | 0.00598
CCAAAGGCATGGACCGGTTTTCCCGGTAATCCGTATTTGCC (site CCAAAGGCTGG) | 0
